Tests used:
Assay in all cases: relative viability (nuclei count vs DMSO), 5 days (fraction); higher = more cells survive
VE-821 + Dasatinib = compound: CS(=O)(=O)c1ccc(-c2cnc(N)c(C(=O)Nc3ccccc3)n2)cc1 [VE-821] + Cc1nc(Nc2ncc(C(=O)Nc3c(C)cccc3Cl)s2)cc(N2CCN(CCO)CC2)n1 [Dasatinib] (partner 0.075 µM)
How it was run: (§1)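 After 5 days of treatment, lung cancer cells in 1536-well plates were fixed and stained in a single step (final 0.05% Triton X-100, 1% formaldehyde, 1 ug/ml Hoechst) and their nuclei counted on 4× images. Treatment had been applied by pin tool the day after seeding as one drug alone or as a fixed anchor-drug dose with five library-drug doses (not always all listed) in √10 steps. Relative viability is the nuclei count of treated wells divided by that of vehicle wells, and values are medians of duplicate plates.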

Vismodegib + Palbociclib = compound: CS(=O)(=O)c1ccc(C(=O)Nc2ccc(Cl)c(-c3ccccn3)c2)c(Cl)c1 [Vismodegib] + CC(=O)c1c(C)c2cnc(Nc3ccc(N4CCNCC4)cn3)nc2n(C2CCCC2)c1=O [Palbociclib] (partner 0.5 µM)
How it was run: as §1

Vismodegib + Navitoclax = compound: CS(=O)(=O)c1ccc(C(=O)Nc2ccc(Cl)c(-c3ccccn3)c2)c(Cl)c1 [Vismodegib] + CC1(C)CCC(c2ccc(Cl)cc2)=C(CN2CCN(c3ccc(C(=O)NS(=O)(=O)c4ccc(N[C@H](CCN5CCOCC5)CSc5ccccc5)c(S(=O)(=O)C(F)(F)F)c4)cc3)CC2)C1 [Navitoclax] (partner 0.5 µM)
How it was run: as §1

Ruxolitinib + AZD7762 = compound: N#CC[C@H](C1CCCC1)n1cc(-c2ncnc3[nH]ccc23)cn1 [Ruxolitinib] + NC(=O)Nc1cc(-c2cccc(F)c2)sc1C(=O)N[C@H]1CCCNC1 [AZD7762] (partner 0.2 µM)
How it was run: as §1

Cell Line	relative viability (VE-821 + Dasatinib; first compound 0.08 µM)	relative viability (VE-821 + Dasatinib; first compound 0.253 µM)	relative viability (VE-821 + Dasatinib; first compound 0.8 µM)	relative viability (VE-821 + Dasatinib; first compound 2.53 µM)	relative viability (VE-821 + Dasatinib; first compound 8 µM)	relative viability (Vismodegib + Palbociclib; first compound 0.08 µM)	relative viability (Vismodegib + Palbociclib; first compound 0.8 µM)	relative viability (Vismodegib + Palbociclib; first compound 2.53 µM)	relative viability (Vismodegib + Palbociclib; first compound 8 µM)	relative viability (Vismodegib + Navitoclax; first compound 0.08 µM)	relative viability (Vismodegib + Navitoclax; first compound 0.253 µM)	relative viability (Vismodegib + Navitoclax; first compound 0.8 µM)	relative viability (Vismodegib + Navitoclax; first compound 2.53 µM)	relative viability (Vismodegib + Navitoclax; first compound 8 µM)	relative viability (Ruxolitinib + AZD7762; first compound 0.08 µM)	relative viability (Ruxolitinib + AZD7762; first compound 0.253 µM)	relative viability (Ruxolitinib + AZD7762; first compound 0.8 µM)	relative viability (Ruxolitinib + AZD7762; first compound 2.53 µM)	relative viability (Ruxolitinib + AZD7762; first compound 8 µM)	relative viability (Vismodegib + Palbociclib; first compound 0.253 µM)
NCI-H441	0.641	0.558	0.706	0.687	0.539	0.203	0.196	0.243	0.24	0.808	0.734	0.722	0.554	0.689	1.29	1.09	1.22	1.16	1.05	–
NCI-H460	0.58	0.488	0.428	0.261	0.223	0.225	0.217	0.156	0.35	1.01	0.995	1.28	1.06	1.21	–	0.626	0.696	0.656	0.676	0.125
NCI-H596	0.545	0.653	0.643	0.679	0.615	–	–	–	–	0.95	1.01	0.848	0.882	0.904	1.35	1.04	1.21	1.09	1.27	–
NCI-H647	0.232	0.168	0.152	0.194	0.122	0.328	0.463	0.354	0.452	–	1.02	1.18	1.03	1.28	0.398	0.499	0.421	0.439	0.366	0.409
NCI-H727	0.457	0.334	0.374	0.32	0.317	0.687	0.631	0.723	0.639	0.496	0.428	0.453	0.36	0.386	0.701	0.461	0.587	0.8	0.979	0.649
NCI-H838	0.301	0.259	–	0.288	0.24	0.214	0.227	0.261	0.273	1.1	1.23	1.11	1.21	1.18	0.925	0.874	0.87	0.776	0.721	0.225
NCI-H1355	0.748	0.65	0.609	0.627	0.575	0.391	0.384	0.413	0.433	0.931	1.06	0.863	0.913	0.952	0.729	0.735	0.878	0.604	0.668	0.441
NCI-H1703	–	–	–	–	–	–	–	–	–	1.02	1.05	0.986	1.23	1.47	0.127	0.126	0.143	–	0.115	–
NCI-H2342	0.331	0.329	0.311	0.324	0.293	0.517	0.472	0.574	0.483	–	–	–	–	–	0.429	0.447	0.488	0.422	0.649	0.699
SW 900	0.7	0.545	0.397	0.658	0.37	0.641	0.634	–	0.603	–	–	–	–	–	0.656	0.525	0.722	0.891	0.833	0.514

Reference: the supplement of paper PMC10307832
